Assay results: US20240341307A1, “FUNGICIDAL COMPOSITIONS” (SYNGENTA CROP PROTECTION AG, priority 2021, published 2024)

Experiments:
Assay type in all cases: cell-based
Settings in all cases: alone
[1] = test system: Glomerella lapenarium Syn. Colletotrichum lapenarium; assay: Glomerella lapenarium syn. Colletotrichum lapenarium (anthracnose of cucurbits) growth inhibition in nutrient broth, photometric after 72 hrs at 620 nm
Source text: A synergistic effect exists whenever the action of an active ingredient combination is greater than the sum of the actions of the individual components. The action to be expected E for a given active ingredient combination obeys the so-called COLBY formula and can be calculated as follows (COLBY, S. R. “Calculating synergistic and antagonistic responses of herbicide combination”. Weeds, Vol. 15, pages 20-22; 1967): • ppm=milligrams of active ingredient (=a.i.) per liter of spray mixture • X=% action by active ingredient A) using p ppm of active ingredient • Y=% action by active ingredient B) using q ppm of active ingredient. According to COLBY, the expected (additive) action of active ingredients A)+B) using p+q ppm of active ingredient is If the action actually observed (O) is greater than the expected action (E), then the action of the combination is super-additive, i.e. there is a synergistic effect. In mathematical terms, synergism corresponds to a positive value for the difference of (O-E). In the case of purely complementary addition of activities (expected activity), said difference (O-E) is zero. A negative value of said difference (O-E) signals a loss of activity compared to the expected activity. Glomerella lapenarium Syn. Colletotrichum lapenarium (Anthracnose of Cucurbits): Conidia of the fungus from cryogenic storage were directly mixed into nutrient broth ([…] potato dextrose broth). A DMSO solution of the test compounds was placed into a microtiter plate (96-well format) and the nutrient broth containing the fungal spores was added to it. The test plates were incubated at 24 C and the inhibition of growth was determined photometrically after 72 hrs at 620 nm.

[2] = test system: Sclerotinia sclerotiorum; assay: Sclerotinia sclerotiorum (cottony rot, white mold) growth inhibition in nutrient broth, photometric after 72 hrs at 620 nm
Source text: A synergistic effect exists whenever the action of an active ingredient combination is greater than the sum of the actions of the individual components. The action to be expected E for a given active ingredient combination obeys the so-called COLBY formula and can be calculated as follows (COLBY, S. R. “Calculating synergistic and antagonistic responses of herbicide combination”. Weeds, Vol. 15, pages 20-22; 1967): • ppm=milligrams of active ingredient (=a.i.) per liter of spray mixture • X=% action by active ingredient A) using p ppm of active ingredient • Y=% action by active ingredient B) using q ppm of active ingredient. According to COLBY, the expected (additive) action of active ingredients A)+B) using p+q ppm of active ingredient is If the action actually observed (O) is greater than the expected action (E), then the action of the combination is super-additive, i.e. there is a synergistic effect. In mathematical terms, synergism corresponds to a positive value for the difference of (O-E). In the case of purely complementary addition of activities (expected activity), said difference (O-E) is zero. A negative value of said difference (O-E) signals a loss of activity compared to the expected activity. Sclerotinia sclerotiorum (Cottony Rot, White Mold, Etc.) Mycelial fragments of the fungus prepared from a fresh liquid culture were directly mixed into nutrient broth (PDB potato dextrose broth). A DMSO solution of the test compounds was placed into a microtiter plate (96-well format) and the nutrient broth containing the fungal spores was added to it. The test plates were incubated at 24 C and the inhibition of growth was determined photometrically after 72 hrs at 620 nm.

[3] = test system: Botrytis cinerea; assay: Botrytis cinerea (gray mould) growth inhibition in nutrient broth, microtiter plate, photometric after 72 hrs
Source text: A synergistic effect exists whenever the action of an active ingredient combination is greater than the sum of the actions of the individual components. The action to be expected E for a given active ingredient combination obeys the so-called COLBY formula and can be calculated as follows (COLBY, S. R. “Calculating synergistic and antagonistic responses of herbicide combination”. Weeds, Vol. 15, pages 20-22; 1967): • ppm=milligrams of active ingredient (=a.i.) per liter of spray mixture • X=% action by active ingredient A) using p ppm of active ingredient • Y=% action by active ingredient B) using q ppm of active ingredient. According to COLBY, the expected (additive) action of active ingredients A)+B) using p+q ppm of active ingredient is If the action actually observed (O) is greater than the expected action (E), then the action of the combination is super-additive, i.e. there is a synergistic effect. In mathematical terms, synergism corresponds to a positive value for the difference of (O-E). In the case of purely complementary addition of activities (expected activity), said difference (O-E) is zero. A negative value of said difference (O-E) signals a loss of activity compared to the expected activity. Botrytis cinerea (GRAY Mould): Conidia of the fungus from cryogenic storage were directly mixed into nutrient broth ([…] potato dextrose broth). A DMSO solution of the test compounds was placed into a microtiter plate (96-well format) and the nutrient broth containing the fungal spores was added to it. The test plates were incubated at 24 C and the inhibition of growth was determined photometrically after 72 hrs.

[4] = test system: Mycosphaerella arachidis syn. Cercospora arachidicola; assay: Mycosphaerella arachidis syn. Cercospora arachidicola (brown leaf spot of peanut) growth inhibition in nutrient broth, photometric after 5-6 days at 620 nm
Source text: A synergistic effect exists whenever the action of an active ingredient combination is greater than the sum of the actions of the individual components. The action to be expected E for a given active ingredient combination obeys the so-called COLBY formula and can be calculated as follows (COLBY, S. R. “Calculating synergistic and antagonistic responses of herbicide combination”. Weeds, Vol. 15, pages 20-22; 1967): • ppm=milligrams of active ingredient (=a.i.) per liter of spray mixture • X=% action by active ingredient A) using p ppm of active ingredient • Y=% action by active ingredient B) using q ppm of active ingredient. According to COLBY, the expected (additive) action of active ingredients A)+B) using p+q ppm of active ingredient is If the action actually observed (O) is greater than the expected action (E), then the action of the combination is super-additive, i.e. there is a synergistic effect. In mathematical terms, synergism corresponds to a positive value for the difference of (O-E). In the case of purely complementary addition of activities (expected activity), said difference (O-E) is zero. A negative value of said difference (O-E) signals a loss of activity compared to the expected activity. Mycosphaerella arachidis syn. Cercospora arachidicola (Brown leaf spot of peanut): Conidia of the fungus from cryogenic storage were directly mixed into nutrient broth (PDB potato dextrose broth). A DMSO solution of the test compounds was placed into a microtiter plate (96-well format) and the nutrient broth containing the fungal spores was added to it. The test plates were incubated at 24 C and the inhibition of growth was determined photometrically after 5-6 days at 620 nm

[5] = test system: Alternaria solani; assay: Alternaria solani (early blight tomato/potato) growth inhibition in nutrient broth, microtiter plate, photometric after 48 hrs
Source text: A synergistic effect exists whenever the action of an active ingredient combination is greater than the sum of the actions of the individual components. The action to be expected E for a given active ingredient combination obeys the so-called COLBY formula and can be calculated as follows (COLBY, S. R. “Calculating synergistic and antagonistic responses of herbicide combination”. Weeds, Vol. 15, pages 20-22; 1967): • ppm=milligrams of active ingredient (=a.i.) per liter of spray mixture • X=% action by active ingredient A) using p ppm of active ingredient • Y=% action by active ingredient B) using q ppm of active ingredient. According to COLBY, the expected (additive) action of active ingredients A)+B) using p+q ppm of active ingredient is If the action actually observed (O) is greater than the expected action (E), then the action of the combination is super-additive, i.e. there is a synergistic effect. In mathematical terms, synergism corresponds to a positive value for the difference of (O-E). In the case of purely complementary addition of activities (expected activity), said difference (O-E) is zero. A negative value of said difference (O-E) signals a loss of activity compared to the expected activity. Alternaria solani (Early Blight Tomato/Potato): Conidia of the fungus from cryogenic storage were directly mixed into nutrient broth (PDB potato dextrose broth). A DMSO solution of the test compounds was placed into a microtiter plate (96-well format) and the nutrient broth containing the fungal spores was added to it. The test plates were incubated at 24 C and the inhibition of growth was determined photometrically after 48 hrs.

SMILES: CCS(=O)(=O)c1cc(C(F)(F)F)ccc1C(=O)N(C(C)=O)c1ccc(OC(F)(F)F)cc1C(=O)OC [Compound A-1.1, Methyl 2-[acetyl-[2-ethylsulfonyl-4-(trifluoromethyl)benzoyl]amino]-5-(trifluoromethoxy)benzoate]
- inhibition at 1 ppm ([1]; Colletotrichum, 1 ppm, read-out: Observed Activity (%)): 0%
- inhibition at 2 ppm ([1]; Colletotrichum, 2 ppm, read-out: Observed Activity (%)): 0%
- inhibition at 10 ppm ([1]; Colletotrichum, 10 ppm, read-out: Observed Activity (%)): 70%
- inhibition at 20 ppm ([1]; Colletotrichum, 20 ppm, read-out: Observed Activity (%)): 70%
- inhibition at 10 ppm ([2]; Sclerotinia sclerotiorum, 10 ppm, read-out: Observed Activity (%)): 0%
- inhibition at 20 ppm ([2]; Sclerotinia sclerotiorum, 20 ppm, read-out: Observed Activity (%)): 0%
- inhibition at 1 ppm ([3]; Botrytis cinerea, 1 ppm, read-out: Observed Activity (%)): 50%
- inhibition at 2 ppm ([3]; Botrytis cinerea, 2 ppm, read-out: Observed Activity (%)): 50%
- inhibition at 10 ppm ([3]; Botrytis cinerea, 10 ppm, read-out: Observed Activity (%)): 50%
- inhibition at 20 ppm ([3]; Botrytis cinerea, 20 ppm, read-out: Observed Activity (%)): 50%
- inhibition at 10 ppm ([4]; Mycosphaerella arachidis, 10 ppm, read-out: Observed Activity (%)): 0%
- inhibition at 20 ppm ([4]; Mycosphaerella arachidis, 20 ppm, read-out: Observed Activity (%)): 0%
- inhibition at 1 ppm ([5]; Alternaria solani, 1 ppm, read-out: Observed Activity (%)): 50%
- inhibition at 2 ppm ([5]; Alternaria solani, 2 ppm, read-out: Observed Activity (%)): 50%

SMILES: CCC(=O)Oc1c(OC)ccnc1C(=O)N[C@@H](C)C(=O)O[C@@H](C)[C@@H](C)c1ccccc1C [Metarylpicoxamid, metarylpicoxamid]
- Observed Activity (%) ([1]; 2 ppm): 70%
- Observed Activity (%) ([3]; 0.0246 ppm): 0%
- Observed Activity (%) ([3]; 0.074 ppm): 20%
- Observed Activity (%) ([3]; 0.22 ppm): 50%
- Observed Activity (%) ([3]; 0.66 ppm): 70%
- Observed Activity (%) ([4]; 0.0246 ppm): 20%
- Observed Activity (%) ([5]; 0.22 ppm): 20%
- Observed Activity (%) ([5]; 0.66 ppm): 50%
- Observed Activity (%) ([5]; 2 ppm): 50%

SMILES: O=C(Nc1ccccc1F)c1ccc(-c2noc(C(F)(F)F)n2)cc1 [Flufenoxadiazam, flufenoxadiazam]
- Observed Activity (%) ([1]; 0.08 ppm): 20%
- Observed Activity (%) ([1]; 0.246 ppm): 20%
- Observed Activity (%) ([1]; 0.74 ppm): 20%
- Observed Activity (%) ([1]; 2.22 ppm): 20%

SMILES: CON(C(=O)c1cn(C)nc1C(F)F)C(C)Cc1c(Cl)cc(Cl)cc1Cl (stereo not drawn) [Pydiflumetofen, pydiflumetofen]
- Observed Activity (%) ([3]; 0.0008 ppm): 0%
- Observed Activity (%) ([3]; 0.00246 ppm): 20%
- Observed Activity (%) ([3]; 0.0074 ppm): 50%
- Observed Activity (%) ([3]; 0.022 ppm): 70%
- Observed Activity (%) ([5]; 0.0008 ppm): 0%
- Observed Activity (%) ([5]; 0.00246 ppm): 50%
- Observed Activity (%) ([5]; 0.0074 ppm): 70%

SMILES: N#Cc1ccc(Oc2ccc(C(F)(F)C(O)(Cn3[nH]cnc3=S)c3ccc(F)cc3F)nc2)cc1 (stereo not drawn) [Fluoxytioconazole, fluoxytioconazole]
- Observed Activity (%) ([3]; 0.22 ppm): 0%
- Observed Activity (%) ([3]; 0.66 ppm): 0%
- Observed Activity (%) ([3]; 2 ppm): 0%
- Observed Activity (%) ([3]; 6 ppm): 20%

SMILES: O=C(NC1CCC1c1ccc(Cl)cc1Cl)c1cccnc1C(F)(F)F (stereo in doubt) [Cyclobutrifluram, cyclobutrifluram]
- Observed Activity (%) ([2]; 0.074 ppm): 20%
- Observed Activity (%) ([3]; 0.066 ppm): 20%
- Observed Activity (%) ([3]; 0.074 ppm): 20%
- Observed Activity (%) ([3]; 0.2 ppm): 50%
- Observed Activity (%) ([3]; 0.22 ppm): 50%
- Observed Activity (%) ([3]; 0.66 ppm): 70%
- Observed Activity (%) ([5]; 0.0008 ppm): 0%
- Observed Activity (%) ([5]; 0.00246 ppm): 20%
- Observed Activity (%) ([5]; 0.0074 ppm): 50%
- Observed Activity (%) ([5]; 0.022 ppm): 70%
